Entries after “also recorded” stand apart in the source; their conditions may differ.
Tests used:
[1] = system: primary cerebellar granule neurons; experiment: Oxygen-glucose deprivation (OGD) in cultured cerebellar granule neurons; format: cell-based, rat; settings: for percent cell death (lactate dehydrogenase release), Avg.: OGD 2 hours, control 14, OGD 51
Procedure: Primary cerebellar granule neurons were isolated from P5-8 rat pups. Briefly, cerebelli were collected and pooled in ice-cold phosphate buffer saline (PBS) without Ca^2+ and Mg^2+. The tissue was finely chopped and transferred to an enzymatic dissociation media containing 20 IU/ml papain in Earle's balanced salt solution (Worthington Biochemical, Freehold, N.J.) and incubated for 30 minutes at 37° C. After enzymatic dissociation, the papain solution was aspirated and the tissue mechanically triturated with a fire-polished Pasteur pipette in complete media [Neurobasal Medium with B-27 supplement (Gibco, Grand Island, N.Y.), penicillin/streptomycin, aphidicolin, glutamate, potassium chloride] containing 2,000 IU/ml DNase and 10 mg/ml ovomucoid protease inhibitor. Single-cell suspensions in complete media were plated on pre-coated poly-L-ornithine/laminin 24-well plates (Becton-Dickinson, Bedford, Mass.) at a density of
5.0×10^5 cells/well. Cells were maintained for two weeks prior to experimentation.
Cultures were treated with Compound A at various concentrations, 60 minutes before OGD. Media was removed and replaced with deoxygenated buffer in an anaerobic chamber (80% nitrogen, 10% hydrogen, 10% carbon dioxide gas mixture). Fresh Compound A, Example 34 or Example 41 was added to the cultures and maintained in the anaerobic chamber for 2 hours. At the end of the incubation, fresh media was exchanged and fresh Compound A was added. Cultures were maintained for an additional 24 hours in a normoxic incubator. Cell death was determined by measuring lactate dehydrogenase release into the media 24 hours later (Roche Biochemicals). In the table below, values are shown for the control, OGD, various concentrations of Compound A, and MK801, a NMDA receptor antagonist, which is a positive control.

[2] = system: experimental autoimmune encephalomyelitis (EAE); experiment: Experimental autoimmune encephalomyelitis (EAE) model of multiple sclerosis; format: in vivo, mouse
Procedure: Six groups of B6 mice were immunized with MOG/CFA and injected with pertussis toxin to induce experimental autoimmune encephalomyelitis (EAE), an animal model of Multiple sclerosis. Three groups of mice were treated with vehicle, 4-{3-[1-benzhydryl-5-chloro-2-(2-{[(2,6-dimethylbenzyl)sulfonyl]amino}ethyl)-1H-indol-3-yl]propyl}benzoic acid (Compound A), or 4-{2-[1-benzhydryl-5-chloro-2-(2-{[(3,4-dichlorobenzyl)sulfonyl]amino}-ethyl)-1H-indol-3-yl]ethoxy}benzoic acid (Compound B) from the day of Immunization (orally, 100 mg/kg, twice/day). Another three groups of mice were treated with vehicle, Compound A or Compound B starting on the day of EAE onset (day 15) (orally, 100 mg/kg, twice/day). […] The results are shown in the Table below, wherein mean clinical score is a mean of clinical evaluation of each animal for that particular day.
Animals are Scored as Follows:
• 0—no clinical signs of EAE (no paralysis) • 1—paralysis of tail • 2—paralysis of tail and partial hind leg paralysis • 3—paralysis of tail and complete hind leg paralysis • 4—paralysis of tail, complete hind leg paralysis and a partial front leg paralysis • 5—moribund animal (all four limbs paralyzed, lack of responsiveness, these mice were immediately euthanized).
In addition, the compounds of Examples 14 and 25 were also found to be efficacious in the mouse experimental autoimmune encephalomyelitis (EAE) model of multiple sclerosis. As shown by the data in the Table below, these compounds led to a delayed onset of disease and reduced severity of disease when administered orally in doses as low as 2.5 mg/kg.

CFA-induced hyperalgesia = CFA-induced hyperalgesia model; format: in vivo, rat; settings: 6 hours after CFA
Excerpt: The sensitivity of peripheral sensory neurons can be enhanced such that they respond to both noxious and non-noxious stimuli resulting in chronic pain (See Julius, D. et al., Nature. 2001; 413:203; Woolf, C. J., et al., Science. […]; 288:1765). Prostaglandins and leukotrienes at the site of inflammation and tissue damage are partially responsible for this potentiation of the pain response. Prostaglandins promote the phosphorylation of ion channels, increasing the excitability and lowering the pain threshold of sensory neurons. Analogously, leukotriene B4 and related arachidonate metabolites of 12-LO bind to and activate the capsaicin receptor (or VR1) ion channel on neurons that respond to heat and low pH (See Piomelli D., TRENDS in Pharmacological Sciences, January 2001; 22(1):17-29). The effect of the compound of Example 10 was measured in the CFA-induced hyperalgesia model, and lipid mediator production was measured at peripheral and central sites.
The animals were dosed with vehicle, the compound of Example 10, naproxen or celecoxib, and then CFA was immediately injected into the hind footpad. To assess hyperalgesia, pressure was applied to the left hind paw at a slow and constant rate using a digital force gauge. Measurements were taken at 0 and 6 hours. The application of the force was stopped when the animal vocalized, or struggled. Readings were taken prior to dosing and CFA injection, and repeated six hours after the CFA injection. Two independent experiments were run and the data were analyzed separately.
The paws were collected at the end of each experiment (6 hours) and the levels of PGE2, LTB4 and TXB2 were measured in the exudates.

serum thromboxane B2 = experiment: Thromboxane B2 levels in the ApoE KO mouse model; format: in vivo; settings: ApoE KO mice, 3.3 mg/g chow for two days; vehicle 76.1±17.3
Procedure: Blood was collected through the retro-orbital siunus and left to coagulate at 37° C. for one hour. Serum was then isolated and assayed for thromboxane B2 by ELISA.
In a separate experiment, ApoE KO mice were dosed with vehicle or the compound of Example 25 at 10 mg/kg by oral gavage. Blood was collected through the retro-orbital siunus and left to coagulate at 37° C. for one hour. Serum was then isolated and assayed for thromboxane B2 by ELISA.

## Cc1cccc(C)c1CS(=O)(=O)NCCc1c(CCCc2ccc(C(=O)O)cc2)c2cc(Cl)ccc2n1C(c1ccccc1)c1ccccc1 [Compound A, 4-{3-[1-benzhydryl-5-chloro-2-(2-{[(2,6-dimethylbenzyl)sulfonyl]amino}ethyl)-1H-indol-3-yl]propyl}benzoic acid]
[1]
  protection of cultured neurons from OGD-induced cell death: effective in protecting cultured neurons from OGD-induced cell death
[1]; 0.1 μM
  percent cell death (lactate dehydrogenase release), Avg.: 38%
[1]; 0.3 μM
  percent cell death (lactate dehydrogenase release), Avg.: 31%
[1]; 1 μM
  percent cell death (lactate dehydrogenase release), Avg.: 27%
[1]; 3 μM
  percent cell death (lactate dehydrogenase release), Avg.: 20%
[2]; 100 mg/kg orally twice/day from EAE onset (day 15), day 11 after immunization
  mean clinical score: 0
[2]; 100 mg/kg orally twice/day from EAE onset (day 15), day 12 after immunization
  mean clinical score: 0
[2]; 100 mg/kg orally twice/day from EAE onset (day 15), day 13 after immunization
  mean clinical score: 0
[2]; 100 mg/kg orally twice/day from EAE onset (day 15), day 14 after immunization
  mean clinical score: 0
[2]; 100 mg/kg orally twice/day from EAE onset (day 15), day 15 after immunization
  mean clinical score: 0.33
[2]; 100 mg/kg orally twice/day from EAE onset (day 15), day 16 after immunization
  mean clinical score: 0.60
[2]; 100 mg/kg orally twice/day from EAE onset (day 15), day 17 after immunization
  mean clinical score: 0.80
[2]; 100 mg/kg orally twice/day from EAE onset (day 15), day 18 after immunization
  mean clinical score: 1.03
[2]; 100 mg/kg orally twice/day from EAE onset (day 15), day 19 after immunization
  mean clinical score: 1.13
[2]; 100 mg/kg orally twice/day from EAE onset (day 15), day 20 after immunization
  mean clinical score: 1.50
[2]; 100 mg/kg orally twice/day from EAE onset (day 15), day 21 after immunization
  mean clinical score: 1.57
[2]; 100 mg/kg orally twice/day from EAE onset (day 15), day 22 after immunization
  mean clinical score: 1.60
[2]; 100 mg/kg orally twice/day from EAE onset (day 15), day 23 after immunization
  mean clinical score: 1.37
[2]; 100 mg/kg orally twice/day from EAE onset (day 15), day 24 after immunization
  mean clinical score: 1.43
[2]; 100 mg/kg orally twice/day from EAE onset (day 15), day 25 after immunization
  mean clinical score: 1.23
[2]; 100 mg/kg orally twice/day from EAE onset (day 15), day 26 after immunization
  mean clinical score: 0.87
[2]; 100 mg/kg orally twice/day from EAE onset (day 15), day 27 after immunization
  mean clinical score: 0.87
[2]; 100 mg/kg orally twice/day from day of immunization (Day 1), day 11 after immunization
  mean clinical score: 0
[2]; 100 mg/kg orally twice/day from day of immunization (Day 1), day 12 after immunization
  mean clinical score: 0
[2]; 100 mg/kg orally twice/day from day of immunization (Day 1), day 13 after immunization
  mean clinical score: 0
[2]; 100 mg/kg orally twice/day from day of immunization (Day 1), day 14 after immunization
  mean clinical score: 0
[2]; 100 mg/kg orally twice/day from day of immunization (Day 1), day 15 after immunization
  mean clinical score: 0
[2]; 100 mg/kg orally twice/day from day of immunization (Day 1), day 16 after immunization
  mean clinical score: 0
[2]; 100 mg/kg orally twice/day from day of immunization (Day 1), day 17 after immunization
  mean clinical score: 0
[2]; 100 mg/kg orally twice/day from day of immunization (Day 1), day 18 after immunization
  mean clinical score: 0
[2]; 100 mg/kg orally twice/day from day of immunization (Day 1), day 19 after immunization
  mean clinical score: 0
[2]; 100 mg/kg orally twice/day from day of immunization (Day 1), day 20 after immunization
  mean clinical score: 0
[2]; 100 mg/kg orally twice/day from day of immunization (Day 1), day 21 after immunization
  mean clinical score: 0.06
[2]; 100 mg/kg orally twice/day from day of immunization (Day 1), day 22 after immunization
  mean clinical score: 0.09
[2]; 100 mg/kg orally twice/day from day of immunization (Day 1), day 23 after immunization
  mean clinical score: 0.16
[2]; 100 mg/kg orally twice/day from day of immunization (Day 1), day 24 after immunization
  mean clinical score: 0.19
[2]; 100 mg/kg orally twice/day from day of immunization (Day 1), day 25 after immunization
  mean clinical score: 0.25
[2]; 100 mg/kg orally twice/day from day of immunization (Day 1), day 26 after immunization
  mean clinical score: 0.28
[2]; 100 mg/kg orally twice/day from day of immunization (Day 1), day 27 after immunization
  mean clinical score: 0.38
[2]; administered from the time of immunization, or in mice with or close to EAE
  prevention of EAE / reduction of clinical severity: can prevent EAE

## O=C(O)c1ccc(CCCc2c(CCNS(=O)(=O)Cc3ccccc3C(F)(F)F)n(C(c3ccccc3)c3ccccc3)c3ccc(Cl)cc23)cc1 [Example 10, 4-(3-{5-chloro-1-(diphenylmethyl)-2-[2-({[2-(trifluoromethyl)benzyl]sulfonyl}amino)ethyl]-1H-indol-3-yl}propyl)benzoic acid]
CFA-induced hyperalgesia; 25 mg/kg
  pain (paw pressure) compared to vehicle control: statistically significant decrease; also recorded: effective
CFA-induced hyperalgesia
  LTB4 levels in paw exudates: significantly inhibited
  TXB2 levels in paw exudates: greater than the inhibition with celecoxib
CFA-induced hyperalgesia; Example 10 at 25 mg/kg
  PGE2 levels in paw exudates: significantly inhibited
Serum thromboxane B2
  serum Thromboxane concentration: 1.4 ± 0.7 ng/mL

From US8283373B2, “Inhibitors of cytosolic phospholipase A2” (Pfizer Inc., priority 2005, dated 2012)
